According to patent US8241674B2, “Methods and compositions for heavy metal detoxification” (priority 2007, dated 2012):
Read-outs that look alike come from different tables or passages of the source.

Tests used:
[1] = test system: NQO1 enzyme; test: NADPH quinone oxido reductase (NQO1) activity assay in RL-34 cell lysate after treatment; conditions: RL-34 cells, 2 days, ratio of treated over vehicle control
[2] = test system: heme oxygenase (HMOX1); conditions: HepG2 cells; for HMOX1 Ratio to DMSO: 8 hours
[3] = test system: phase II enzymes (GSTA1 and NQO1); conditions: HepG2 cells; for Phase II (ave) Ratio to DMSO: 8 hours, average of GSTA1 and NQO1
[4] = test system: metallothionein (MT 1, 2); conditions: HepG2 cells; for MT 1,2 (ave) Ratio to DMSO: 8 hours
[5] = test system: GST enzyme; test: GST activity assay in RL-34 cell lysate after treatment; type: cell-based, rat; conditions: RL-34 cells, 2 days, ratio over DMSO control
[6] = test system: heme oxygenase (HO-1) luciferase reporter; test: Heme oxygenase (HO-1) luciferase reporter in HepG2 cells; conditions: HepG2 cell line

C[C@]12CC[C@H](O)CC1=CC[C@@H]1[C@@H]2CC[C@]2(C)C(=O)CC[C@@H]12 [DHEA]
Induction of NQO1 activity ([1]; 20 ug/mL): 1.1

[Cl][Cd][Cl] [CdCl2, reference compound]
HMOX1 Ratio to DMSO ([2]; 40 uM): 21.23
HMOX1 gene induction (in words) ([2]; controls): induce
Phase II (ave) Ratio to DMSO ([3]; 40 uM): 0.94
phase II gene induction (in words) ([3]; controls): unable to increase
MT 1,2 (ave) Ratio to DMSO ([4]; 40 uM): 83.31
MT gene induction (in words) ([4]; controls): induce

O=C([O-])CC(O)(CC(=O)[O-])C(=O)[O-].[K+].[K+].[K+] [K-Citrate]
Fold Induction of GST activity ([5]; 20 ug/mL): 1.1 fold
Induction of NQO1 activity ([1]; 20 ug/mL): 0.9

O=C(/C=C/c1ccc(O)c(O)c1)O[C@@H]1C[C@](O)(C(=O)O)C[C@@H](O)[C@H]1O [chlorogenic acid]
Fold Induction of GST activity ([5]; 25 ug/mL): 1.1 fold
Induction of NQO1 activity ([1]; 25 ug/mL): 1.2

COc1cc(C=CC(=O)CC(=O)C=Cc2ccc(O)c(OC)c2)ccc1O [Curcumin, 1,7-Bis(4-hydroxy-3-methoxyphenyl)hepta-1,6-diene-3,5-dione]
Fold Induction of heme oxygenase luciferase activity ([6]; 24 hours, ratio over vehicle control, concentration not given): 6.1 fold
expression of heme oxygenase promoter activity (in words) ([6]; thirty percent induction over DMSO control considered active): induced
HMOX1 Ratio to DMSO ([2]; 5 μg/ml): 2.09
Phase II (ave) Ratio to DMSO ([3]; 5 μg/ml): 1.15
Fold Induction of GST activity ([5]; 5 ug/mL): 1.0 fold
Induction of NQO1 activity ([1]; 5 ug/mL): 4.6
MT 1,2 (ave) Ratio to DMSO ([4]; 5 μg/ml): 0.90

O=c1c(-c2ccc(O)cc2)coc2cc(O)cc(O)c12 [Bonistein]
Fold Induction of GST activity ([5]; 20 ug/mL): 1.0 fold
Induction of NQO1 activity ([1]; 20 ug/mL): 1.2

N[C@H]1C(O)O[C@H](CO)[C@@H](O)[C@@H]1O (some centres unmarked) [Glucosamine]
Fold Induction of GST activity ([5]; 20 ug/mL): 1.1 fold
Induction of NQO1 activity ([1]; 20 ug/mL): 1.0

Oc1ccc(C=Cc2cc(O)cc(O)c2)cc1 [Resveratrol]
Induction of NQO1 activity ([1]; 20 ug/mL): 2.2

O=c1c(O)c(-c2ccc(O)c(O)c2)oc2cc(O)cc(O)c12 [Quercitin]
Fold Induction of GST activity ([5]; 20 ug/mL): 1.0 fold
Induction of NQO1 activity ([1]; 20 ug/mL): 1.4

C[C@@H]1O[C@@H](OC[C@H]2O[C@@H](Oc3c(-c4ccc(O)c(O)c4)oc4cc(O)cc(O)c4c3=O)[C@H](O)[C@@H](O)[C@@H]2O)[C@H](O)[C@H](O)[C@H]1O [Rutin]
Fold Induction of GST activity ([5]; 20 ug/mL): 1.0 fold
Induction of NQO1 activity ([1]; 20 ug/mL): 0.9

Hyaluronic acid
Induction of NQO1 activity ([1]; 20 ug/mL): 0.9

CC(C)=CCC/C(C)=C/CC/C(C)=C/CC/C(C)=C/CC1=C(C)C(=O)c2ccccc2C1=O [Vitamin K2]
Induction of NQO1 activity ([1]; 20 ug/mL): 0.9

Inulin
Induction of NQO1 activity ([1]; 20 ug/mL): 0.9

OCc1c[nH]c2ccccc12 [I3C]
Fold Induction of GST activity ([5]; 25 ug/mL): 1.1 fold
Induction of NQO1 activity ([1]; 25 ug/mL): 2.4
